Assay results: article PMC9456425, “Aminopeptidase N Inhibitors as Pointers for Overcoming Antitumor Treatment Resistance” (International Journal of Molecular Sciences, 2022)
Like-named read-outs stand apart in the source and are kept apart here. Values belong to the compound of their own block, whether it stands above or below them.

Columns and labels:
[1] = target: T1, APN (Microsomal Leucine aminopeptidase from porcine kidney EC 3.4.11.2) (Sus scrofa, UniProt P15145); experiment: APN inhibitory activity, spectrophotometry with L-leucine-p-nitroanilide; format: biochemical
T1 construct: Microsomal Leucine aminopeptidase from porcine kidney EC 3.4.11.2, Type IV-S, ammonium sulfate suspension; purchased Sigma-Aldrich; host or cells: porcine kidney (tissue-derived, microsomal)
T1 sequence (P15145 1-963): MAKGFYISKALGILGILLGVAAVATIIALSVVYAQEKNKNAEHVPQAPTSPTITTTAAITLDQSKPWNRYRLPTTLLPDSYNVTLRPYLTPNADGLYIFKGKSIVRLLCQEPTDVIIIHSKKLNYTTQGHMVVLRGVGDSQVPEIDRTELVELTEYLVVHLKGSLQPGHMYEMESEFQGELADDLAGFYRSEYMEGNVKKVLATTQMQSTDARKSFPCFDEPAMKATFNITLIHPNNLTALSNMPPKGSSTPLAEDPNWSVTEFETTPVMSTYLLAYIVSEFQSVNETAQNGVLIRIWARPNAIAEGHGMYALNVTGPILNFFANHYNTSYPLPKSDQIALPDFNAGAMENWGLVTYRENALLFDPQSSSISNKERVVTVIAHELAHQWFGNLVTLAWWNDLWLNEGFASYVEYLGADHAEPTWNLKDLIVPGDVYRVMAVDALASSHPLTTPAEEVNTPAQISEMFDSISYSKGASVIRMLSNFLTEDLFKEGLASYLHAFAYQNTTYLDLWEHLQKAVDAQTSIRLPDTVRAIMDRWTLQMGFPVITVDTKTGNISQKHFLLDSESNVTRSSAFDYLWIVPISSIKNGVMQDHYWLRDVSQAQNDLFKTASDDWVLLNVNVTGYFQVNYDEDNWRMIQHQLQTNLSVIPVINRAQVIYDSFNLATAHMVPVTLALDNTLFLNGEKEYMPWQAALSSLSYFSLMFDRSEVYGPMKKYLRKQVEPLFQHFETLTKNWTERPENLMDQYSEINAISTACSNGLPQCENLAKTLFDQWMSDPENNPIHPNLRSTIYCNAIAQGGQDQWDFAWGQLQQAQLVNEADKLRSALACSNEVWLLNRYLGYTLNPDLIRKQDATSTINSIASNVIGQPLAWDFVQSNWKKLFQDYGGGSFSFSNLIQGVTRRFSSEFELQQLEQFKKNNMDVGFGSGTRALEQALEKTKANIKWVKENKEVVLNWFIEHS
Procedure: APN inhibitory activity was determined using a standardized spectrophotometry protocol using L-leucine-p-nitroanilide as a chromogenic substrate for APN. Measurements were performed in triplicate at 405 nm at a Cytation 3 well-plate reader.
In some compounds, solubility problems occurred, which complicated the inhibition activity determination. We overcame these either by the use of cosolvents or by an alternative HPLC approach. The details are summarized in the Supplementary Materials.
IC50 values against enzyme APN were determined using L-Leucine-p-nitroanilide (Sigma-Aldrich, Darmstadt, Germany) as the substrate and Microsomal Leucine aminopeptidase from porcine kidney EC 3.4.11.2, Type IV-S, ammonium sulfate suspension, 10–40 units/mg protein (Sigma-Aldrich, Darmstadt, Germany). The assay was performed by a Cytation 3 Cell Imaging Multi-Mode Reader (BioTek Instruments, Inc., Winooski, VT, USA) with appropriate Gen-5 software in 96-well plates. A 0.02 mol/L TRIS-HCl buffer solution at pH 7.5 was used as the assay buffer. All tested compounds were dissolved in TRIS-HCl buffer solution and compounds with poor solubility were dissolved in a small amount of DMSO or NMP used as a cosolvent. The assay mixture, which contained a variable amount of inhibitor solution (from 0 up to 80 μL), 10 μL of the enzyme solution, 5 μL of the substrate solution, and the assay buffer adjusted to 200 μL, was incubated at 37 °C for 40 min with short orbital shaking for 10 s. The hydrolysis of the substrate was monitored by the optical photometric method of absorbance in the visible and ultraviolet regions at a wavelength of 405 nm. The enzyme activity inhibitory rate was calculated from the measures of absorbance. The results of the 50% inhibitory activity of the enzyme (IC50) were determined through a regression analysis of the concentration/absorbance data by GraFit 5 software (Erithacus Software Ltd., East Grinstead, UK).

[2] = tested on: DU-145 cells; experiment: WST-1 analysis of cell proliferation, DU-145; format: cell-based, human; details: for Proliferation of control: 48 h
Procedure: (§1) The results are shown in Table 4, Figure 2, and the Supplementary Materials.
(§2) A human monocytic leukemia cell line (THP-1), human breast adenocarcinoma cells (MCF-7), and human prostate cancer (DU-145) cell line were obtained from ATCC. THP-1 and DU-145 cells were cultivated in an RPMI 1640 culture medium and MCF-7 cells were cultivated in a DMEM medium, both supplemented with the antibiotic solution (100 U/mL of penicillin, 100 µg/mL of streptomycin) and 10% FBS. Cells were maintained in a humidified incubator with 5% CO2 at 37 °C and were regularly tested for the presence of mycoplasma contamination.
(§3) THP-1, MCF-7, and DU-145 cells were seeded in 96-well plates. Adherent cell lines were allowed to attach to the wells for 24 h. Cells were then treated with various concentrations of tested compounds to reach the final concentrations ranging between 1 µM and 100 µM and were incubated for 48 h. Cell proliferation was determined using Cell Proliferation Reagent WST-1 (2-(4-iodophenyl)-3-(4-nitrophenyl)-5-(2,4-disulfophenyl)-2H-tetrazolium) (Roche Diagnostics, Mannheim, Germany), as previously described. WST-1 analysis was performed in three independent experiments, with each condition tested in triplicate. The IC50 values were determined using the nonlinear regression four-parameter logistic model using GraphPad Prism 5.00 software (GraphPad Software, San Diego, CA, USA). Statistical significance between the values was assessed by one-way analysis of variance (ANOVA) paired with Dunnett’s post hoc test using GraphPad Prism 5.00 software (GraphPad Software, San Diego, CA, USA) at levels of * p < 0.05, ** p < 0.01, and *** p < 0.001.

[3] = tested on: MCF-7 cells; experiment: WST-1 analysis of cell proliferation, MCF-7; format: cell-based, human; details: for Proliferation of control: 48 h
Procedure: as §1, §2, §3

[4] = tested on: THP-1 cells; experiment: WST-1 analysis of cell proliferation, THP-1; format: cell-based, human; details: for Proliferation of control: 48 h
Procedure: as §1, §2, §3

[5] = TRIS-HCl buffer pH 7.5, 37 °C, 40 min, no cosolvent noted, read-out: IC50 Experimental
[6] = logarithm of IC50 in µmol/L, read-out: Log IC50 Experimental (converted)
[7] = NMP as a cosolvent, read-out: IC50 Experimental
[8] = DMSO as a cosolvent, read-out: IC50 Experimental

SMILES: CC(=NNC(N)=S)c1ccccc1NC(=O)CN1CCCCCC1 [22-7-1]
IC50 [1, 5]: 169 µM
IC50 [1, 6]: 169 µM

SMILES: CCCN(CCC)CC(=O)Nc1ccc(C(C)=NNC(N)=S)cc1 [24-3-1]
IC50 [1, 5]: 1270 µM
IC50 [1, 6]: 1270 µM

SMILES: CC(=NNC(N)=S)c1ccc(NC(=O)CN2CCCC2)cc1 [24-5-1]
IC50 [1, 7]: 35.6 µM
IC50 [1, 6]: 35.6 µM

SMILES: CC(=NNC(N)=O)c1ccc(NC(=O)CN2CCCCC2)cc1 [34-6-1, 4-[2-(piperidine-1-yl)acetamido]acetophenone semicarbazone]
Proliferation of control ([2]; DU-145, 1 μmol/l): 98.33%
Proliferation of control ([2]; DU-145, 5 μmol/l): 98.26%
Proliferation of control ([2]; DU-145, 10 μmol/l): 97.24%
Proliferation of control ([2]; DU-145, 30 μmol/l): 97.25%
Proliferation of control ([2]; DU-145, 50 μmol/l): 96.59%
Proliferation of control ([2]; DU-145, 75 μmol/l): 99.61%
Proliferation of control ([2]; DU-145, 100 μmol/l): 99.25%
antiproliferative effect (in words) ([2]; DU-145, no APN expression): did not affect proliferation at all
IC50 ([2]; Homo sapiens, DU-145, 48 h incubation): > 100 µM
IC50 ([3]; Homo sapiens, MCF7, MCF-7, 48 h incubation): > 100 µM
Proliferation of control ([3]; MCF-7, 1 μmol/l): 100.09%
Proliferation of control ([3]; MCF-7, 5 μmol/l): 96.80%
Proliferation of control ([3]; MCF-7, 10 μmol/l): 97.62%
Proliferation of control ([3]; MCF-7, 30 μmol/l): 96.30%
Proliferation of control ([3]; MCF-7, 50 μmol/l): 99.57%
Proliferation of control ([3]; MCF-7, 75 μmol/l): 85.41%
Proliferation of control ([3]; MCF-7, 100 μmol/l): 81.17%
IC50 [1, 5]: 18.4 µM
IC50 [1, 6]: 18.4 µM
IC50 ([4]; Homo sapiens, THP-1, 48 h incubation): > 100 µM
Proliferation of control ([4]; THP-1, 1 μmol/l): 97.78%
Proliferation of control ([4]; THP-1, 5 μmol/l): 97.58%
Proliferation of control ([4]; THP-1, 10 μmol/l): 93.87%
Proliferation of control ([4]; THP-1, 30 μmol/l): 86.64%
Proliferation of control ([4]; THP-1, 50 μmol/l): 73.78%
Proliferation of control ([4]; THP-1, 75 μmol/l): 71.38%
Proliferation of control ([4]; THP-1, 100 μmol/l): 69.17%

SMILES: CC(=NNC(N)=S)c1ccccc1NC(=O)CN1CCCCC1 [22-6-1]
IC50 [1, 5]: 778 µM

SMILES: CC(=O)c1ccc(NC(=O)CN2CCN(Cc3ccccc3)CC2)cc1 [14-10-1]
IC50 [1, 8]: 427 µM

SMILES: CC(=NNC(N)=S)c1ccc(NC(=O)CN2CCOCC2)cc1 [24-8-1, 4-[(morpholine-4-yl)acetamido]acetophenone thiosemicarbazone]
IC50 [1, 6]: 6.79 µM

SMILES: CCCCN(CCCC)CC(=O)Nc1ccc(C(C)=NNC(N)=S)cc1 [24-4-1]
IC50 [1, 7]: 1680 µM
IC50 [1, 6]: 1680 µM

Continued, values first:

IC50 [1, 5]: 44.1 µM
IC50 [1, 6]: 44.1 µM
SMILES: CC(=NNC(N)=S)c1ccc(NC(=O)CN2CCCCCC2)cc1 [24-7-1]

IC50 [1, 5]: 1640 µM
IC50 [1, 6]: 1640 µM
melting point: 231.1 to 231.8 °C
SMILES: CC(=NNC(N)=O)c1ccc(NC(=O)CN2CCOCC2)cc1 [34-8-1]

IC50 [1, 5]: 173 µM
SMILES: CC(=O)c1ccc(NC(=O)CN2CCCCC2)cc1 [14-6-1]

IC50 [1, 7]: 1550 µM
IC50 [1, 6]: 1550 µM
SMILES: CC(=NNC(N)=S)c1ccc(NC(=O)CN2CCCCC2)cc1 [24-6-1]

IC50 [1, 5]: 425 µM
SMILES: CC(=O)c1ccc(NC(=O)CN2CCOCC2)cc1 [14-8-1]

IC50 [1, 8]: 366 µM
IC50 [1, 6]: 366 µM
SMILES: CCN(CC)CC(=O)Nc1ccc(C(C)=O)cc1 [14-2-1]
